In article PMC9684079, “Pharmacological targeting of glutamatergic neurons within the brainstem for weight reduction” (Nature Metabolism, 2022):

Key:
Assay in all cases: biochemical
Settings in all cases: read-out: % Inhibition
[1] = molecular target: T1, Protein Tyrosine Kinase, ZA70 (ZAP-70) (Homo sapiens, UniProt P43403); parameters: Cerep/Eurofins selectivity panel, enzymes, per cent inhibition at 10 uM
T1 construct: gene ZAP70

[2] = molecular target: T2, Protein Serine/Threonine Kinase, IKK-1 (Homo sapiens, UniProt O15111); parameters: Cerep/Eurofins selectivity panel, enzymes, per cent inhibition at 10 uM
T2 construct: gene CHUK

Phospholipase PLA2-I = molecular target: T3, Phospholipase PLA2-I (Sus scrofa, UniProt P00592); parameters: Cerep/Eurofins selectivity panel, enzymes, per cent inhibition at 10 uM
T3 construct: gene PLA2G1B

Anaphylatoxin C5a = molecular target: T4, Anaphylatoxin C5a (Homo sapiens, UniProt P21730); parameters: Cerep/Eurofins selectivity panel, receptors, channels and transporters, per cent inhibition at 10 uM
T4 construct: gene C5AR1

Insulin = molecular target: T5, Insulin (Rattus norvegicus, UniProt P15127); parameters: Cerep/Eurofins selectivity panel, receptors, channels and transporters, per cent inhibition at 10 uM
T5 construct: gene Insr

[3] = molecular target: T6, Nitric Oxide Synthase, inducible (iNOS) (Mus musculus, UniProt P29477); parameters: Cerep/Eurofins selectivity panel, enzymes, per cent inhibition at 10 uM
T6 construct: gene Nos2

Cholecystokinin CCK1 = molecular target: T7, Cholecystokinin CCK1 (Homo sapiens, UniProt P32238); parameters: Cerep/Eurofins selectivity panel, receptors, channels and transporters, per cent inhibition at 10 uM
T7 construct: gene CCKAR

Histamine H3 = molecular target: T8, Histamine H3 (Homo sapiens, UniProt Q9Y5N1); parameters: Cerep/Eurofins selectivity panel, receptors, channels and transporters, per cent inhibition at 10 uM
T8 construct: gene HRH3

Bradykinin B1 = molecular target: T9, Bradykinin B1 (Homo sapiens, UniProt P46663); parameters: Cerep/Eurofins selectivity panel, receptors, channels and transporters, per cent inhibition at 10 uM
T9 construct: gene BDKRB1

[4] = molecular target: T10, Serotonin (5-Hydroxytryptamine) 5-HT2B (Homo sapiens, UniProt P41595); parameters: Cerep/Eurofins selectivity panel, receptors, channels and transporters, per cent inhibition at 10 uM
T10 construct: gene HTR2B

[5] = molecular target: T11, Phosphodiesterase PDE10A2 (Homo sapiens, UniProt Q9Y233); parameters: Cerep/Eurofins selectivity panel, enzymes, per cent inhibition at 10 uM
T11 construct: gene PDE10A; isoform PDE10A2

Carbonic Anhydrase II = molecular target: T12, Carbonic Anhydrase II (Homo sapiens, UniProt P00918); parameters: Cerep/Eurofins selectivity panel, enzymes, per cent inhibition at 10 uM
T12 construct: gene CA2

[6] = molecular target: Protein Serine/Threonine Kinase, MAPK8 (JNK1) (Homo sapiens, UniProt P45983); parameters: Cerep/Eurofins selectivity panel, enzymes, per cent inhibition at 10 uM
HMG-CoA Reductase = molecular target: T13, HMG-CoA Reductase (Homo sapiens, UniProt P04035); parameters: Cerep/Eurofins selectivity panel, enzymes, per cent inhibition at 10 uM
T13 construct: gene HMGCR

5-Lipoxygenase = molecular target: T14, 5-Lipoxygenase (Homo sapiens, UniProt P09917); parameters: Cerep/Eurofins selectivity panel, enzymes, per cent inhibition at 10 uM
T14 construct: gene ALOX5

[7] = molecular target: Protein Serine/Threonine Kinase, MAPK1 (ERK2) (Homo sapiens, UniProt P28482); parameters: Cerep/Eurofins selectivity panel, enzymes, per cent inhibition at 10 uM
[8] = molecular target: Protein Serine/Threonine Phosphatase, PPP3CA (Calccineurin, PP2B) (Homo sapiens, UniProt Q08209); parameters: Cerep/Eurofins selectivity panel, enzymes, per cent inhibition at 10 uM
[9] = molecular target: T15, Protein Tyrosine Kinase, EGF receptor (Homo sapiens, UniProt P00533); parameters: Cerep/Eurofins selectivity panel, enzymes, per cent inhibition at 10 uM
T15 construct: gene EGFR

[10] = molecular target: Protein Tyrosine Kinase, ERBB2 (HER2) (Homo sapiens, UniProt P04626); parameters: Cerep/Eurofins selectivity panel, enzymes, per cent inhibition at 10 uM
Monoamine Oxidase MAO-A = molecular target: T16, Monoamine Oxidase MAO-A (Homo sapiens, UniProt P21397); parameters: Cerep/Eurofins selectivity panel, enzymes, per cent inhibition at 10 uM
T16 construct: gene MAOA

[11] = molecular target: T17, Peptidase, Matrix metalloprotease-7 (MMP-7) (Homo sapiens, UniProt P09237); parameters: Cerep/Eurofins selectivity panel, enzymes, per cent inhibition at 10 uM
T17 construct: gene MMP7

Cyclooxygenase COX-2 = molecular target: T18, Cyclooxygenase COX-2 (Homo sapiens, UniProt P35354); parameters: Cerep/Eurofins selectivity panel, enzymes, per cent inhibition at 10 uM
T18 construct: gene PTGS2

Xanthine Oxidase = molecular target: T19, Xanthine Oxidase (Bos taurus, UniProt P80457); parameters: Cerep/Eurofins selectivity panel, enzymes, per cent inhibition at 10 uM
T19 construct: gene XDH

[12] = molecular target: T20, Peptidase, Tumor necrosis factorα Converting enzyme (TACE) (Homo sapiens, UniProt P78536); parameters: Cerep/Eurofins selectivity panel, enzymes, per cent inhibition at 10 uM
T20 construct: gene ADAM17

Calcium Channel N-type = molecular target: T21, Calcium Channel N-type (Rattus norvegicus, UniProt Q02294); parameters: Cerep/Eurofins selectivity panel, receptors, channels and transporters, per cent inhibition at 10 uM
T21 construct: gene Cacna1b
T21 sequence (Q02294 whole entry): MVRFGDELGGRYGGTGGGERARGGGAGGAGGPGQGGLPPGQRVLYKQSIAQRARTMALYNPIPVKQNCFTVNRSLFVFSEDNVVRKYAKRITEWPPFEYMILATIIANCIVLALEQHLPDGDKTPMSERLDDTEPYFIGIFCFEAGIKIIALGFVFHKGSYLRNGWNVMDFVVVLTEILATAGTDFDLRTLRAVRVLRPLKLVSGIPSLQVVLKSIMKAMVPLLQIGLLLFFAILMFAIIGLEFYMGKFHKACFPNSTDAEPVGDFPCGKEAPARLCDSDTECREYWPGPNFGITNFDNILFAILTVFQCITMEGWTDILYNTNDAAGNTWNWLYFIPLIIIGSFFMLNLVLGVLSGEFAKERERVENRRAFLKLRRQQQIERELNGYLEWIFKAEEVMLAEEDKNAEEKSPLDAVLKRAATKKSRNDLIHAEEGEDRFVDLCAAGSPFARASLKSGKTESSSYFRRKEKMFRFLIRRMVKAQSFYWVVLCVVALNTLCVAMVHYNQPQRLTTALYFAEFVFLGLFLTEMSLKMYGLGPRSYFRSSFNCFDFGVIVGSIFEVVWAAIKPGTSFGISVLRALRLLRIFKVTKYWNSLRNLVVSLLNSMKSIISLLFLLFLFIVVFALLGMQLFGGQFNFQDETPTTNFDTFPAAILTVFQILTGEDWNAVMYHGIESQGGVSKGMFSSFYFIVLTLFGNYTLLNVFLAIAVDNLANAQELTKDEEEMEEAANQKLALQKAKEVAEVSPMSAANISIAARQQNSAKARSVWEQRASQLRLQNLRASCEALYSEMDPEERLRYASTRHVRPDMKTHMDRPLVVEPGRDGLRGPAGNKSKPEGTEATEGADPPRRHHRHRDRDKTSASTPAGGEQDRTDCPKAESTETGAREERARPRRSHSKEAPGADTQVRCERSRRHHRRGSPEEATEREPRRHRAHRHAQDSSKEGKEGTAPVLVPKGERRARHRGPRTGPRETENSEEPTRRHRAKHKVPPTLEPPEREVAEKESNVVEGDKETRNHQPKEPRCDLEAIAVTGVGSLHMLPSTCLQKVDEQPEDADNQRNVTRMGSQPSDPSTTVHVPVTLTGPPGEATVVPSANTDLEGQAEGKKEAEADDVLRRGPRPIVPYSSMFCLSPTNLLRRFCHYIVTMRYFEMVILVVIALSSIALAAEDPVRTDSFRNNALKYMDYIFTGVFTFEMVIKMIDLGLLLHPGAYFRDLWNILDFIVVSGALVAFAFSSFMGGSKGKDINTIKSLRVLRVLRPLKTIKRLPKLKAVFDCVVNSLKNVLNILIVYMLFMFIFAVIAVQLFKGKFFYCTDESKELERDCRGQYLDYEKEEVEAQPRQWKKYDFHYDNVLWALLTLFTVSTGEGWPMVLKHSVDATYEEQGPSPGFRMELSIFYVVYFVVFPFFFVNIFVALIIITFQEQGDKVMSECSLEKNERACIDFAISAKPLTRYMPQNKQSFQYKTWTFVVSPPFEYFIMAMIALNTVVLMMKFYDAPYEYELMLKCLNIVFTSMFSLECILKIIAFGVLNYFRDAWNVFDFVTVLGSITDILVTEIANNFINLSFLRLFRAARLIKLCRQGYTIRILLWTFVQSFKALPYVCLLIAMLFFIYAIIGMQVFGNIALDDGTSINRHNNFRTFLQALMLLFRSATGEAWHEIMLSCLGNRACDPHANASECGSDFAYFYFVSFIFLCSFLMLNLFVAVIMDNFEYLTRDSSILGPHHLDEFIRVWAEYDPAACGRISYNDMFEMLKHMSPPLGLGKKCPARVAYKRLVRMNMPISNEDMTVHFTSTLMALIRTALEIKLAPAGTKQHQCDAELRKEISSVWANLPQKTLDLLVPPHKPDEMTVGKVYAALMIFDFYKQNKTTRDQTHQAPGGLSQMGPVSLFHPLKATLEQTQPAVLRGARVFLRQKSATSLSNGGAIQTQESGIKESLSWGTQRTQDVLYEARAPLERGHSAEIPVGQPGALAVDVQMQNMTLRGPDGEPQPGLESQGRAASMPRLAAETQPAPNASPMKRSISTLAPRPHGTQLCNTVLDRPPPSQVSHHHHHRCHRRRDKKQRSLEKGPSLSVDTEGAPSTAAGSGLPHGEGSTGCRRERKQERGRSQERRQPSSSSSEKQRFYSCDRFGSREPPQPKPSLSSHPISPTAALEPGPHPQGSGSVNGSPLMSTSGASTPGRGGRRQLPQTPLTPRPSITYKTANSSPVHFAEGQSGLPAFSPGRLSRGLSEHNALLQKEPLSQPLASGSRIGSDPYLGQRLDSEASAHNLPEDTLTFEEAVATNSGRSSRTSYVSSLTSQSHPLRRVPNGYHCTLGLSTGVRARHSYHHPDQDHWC

T19 sequence (P80457 whole entry): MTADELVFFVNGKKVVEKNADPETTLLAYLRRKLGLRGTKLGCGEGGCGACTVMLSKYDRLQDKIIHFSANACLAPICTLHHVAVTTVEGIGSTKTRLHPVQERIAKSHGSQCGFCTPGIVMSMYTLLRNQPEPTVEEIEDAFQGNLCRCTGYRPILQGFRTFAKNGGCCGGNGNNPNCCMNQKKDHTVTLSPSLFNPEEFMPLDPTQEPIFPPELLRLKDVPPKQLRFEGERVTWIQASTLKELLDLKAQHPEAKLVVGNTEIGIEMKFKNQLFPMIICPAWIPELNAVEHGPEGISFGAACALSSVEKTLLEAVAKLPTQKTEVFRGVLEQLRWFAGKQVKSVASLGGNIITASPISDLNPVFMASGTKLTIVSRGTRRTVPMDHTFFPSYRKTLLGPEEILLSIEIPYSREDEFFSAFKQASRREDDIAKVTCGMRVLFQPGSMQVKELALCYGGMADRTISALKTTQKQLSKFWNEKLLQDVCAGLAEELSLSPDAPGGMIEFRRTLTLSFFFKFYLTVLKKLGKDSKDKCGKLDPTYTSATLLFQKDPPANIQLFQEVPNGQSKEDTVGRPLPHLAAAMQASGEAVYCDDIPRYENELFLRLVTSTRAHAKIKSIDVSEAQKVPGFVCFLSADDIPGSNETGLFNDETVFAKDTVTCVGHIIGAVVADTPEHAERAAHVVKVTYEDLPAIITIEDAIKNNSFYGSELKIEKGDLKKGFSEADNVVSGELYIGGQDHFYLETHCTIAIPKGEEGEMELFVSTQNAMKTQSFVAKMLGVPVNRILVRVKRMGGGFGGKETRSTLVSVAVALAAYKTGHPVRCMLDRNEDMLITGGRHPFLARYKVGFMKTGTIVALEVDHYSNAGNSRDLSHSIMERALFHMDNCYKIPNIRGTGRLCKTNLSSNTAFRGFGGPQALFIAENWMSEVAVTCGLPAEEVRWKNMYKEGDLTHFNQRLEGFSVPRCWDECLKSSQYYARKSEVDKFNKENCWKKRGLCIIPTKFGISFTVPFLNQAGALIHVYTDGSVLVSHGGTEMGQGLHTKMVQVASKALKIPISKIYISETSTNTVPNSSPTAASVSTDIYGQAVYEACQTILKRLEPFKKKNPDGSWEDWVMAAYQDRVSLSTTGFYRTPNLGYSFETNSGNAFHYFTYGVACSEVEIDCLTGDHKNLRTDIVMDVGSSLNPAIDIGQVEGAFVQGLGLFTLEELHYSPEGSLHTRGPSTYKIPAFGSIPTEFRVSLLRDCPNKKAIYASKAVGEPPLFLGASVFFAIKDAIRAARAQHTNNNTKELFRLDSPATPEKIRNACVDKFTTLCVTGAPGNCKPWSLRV
T4 sequence (P21730 whole entry): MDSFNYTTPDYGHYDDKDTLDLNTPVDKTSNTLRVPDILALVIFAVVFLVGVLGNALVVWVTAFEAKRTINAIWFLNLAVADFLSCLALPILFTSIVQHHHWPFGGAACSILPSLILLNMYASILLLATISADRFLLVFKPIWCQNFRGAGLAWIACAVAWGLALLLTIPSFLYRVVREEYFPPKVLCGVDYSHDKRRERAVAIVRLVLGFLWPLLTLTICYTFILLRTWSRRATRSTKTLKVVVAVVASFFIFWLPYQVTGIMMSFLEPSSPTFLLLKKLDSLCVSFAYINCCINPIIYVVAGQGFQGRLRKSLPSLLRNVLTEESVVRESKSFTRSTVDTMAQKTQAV
T9 sequence (P46663 whole entry): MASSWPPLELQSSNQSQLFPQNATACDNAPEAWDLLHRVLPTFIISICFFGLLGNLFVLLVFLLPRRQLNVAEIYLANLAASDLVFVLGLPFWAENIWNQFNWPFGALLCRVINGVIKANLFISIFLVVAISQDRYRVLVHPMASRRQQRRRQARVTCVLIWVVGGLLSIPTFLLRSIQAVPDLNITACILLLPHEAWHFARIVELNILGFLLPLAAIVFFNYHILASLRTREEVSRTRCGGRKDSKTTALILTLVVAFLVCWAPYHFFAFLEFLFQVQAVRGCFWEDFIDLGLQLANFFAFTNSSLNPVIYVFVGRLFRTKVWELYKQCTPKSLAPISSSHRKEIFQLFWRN
T1 sequence (P43403 whole entry): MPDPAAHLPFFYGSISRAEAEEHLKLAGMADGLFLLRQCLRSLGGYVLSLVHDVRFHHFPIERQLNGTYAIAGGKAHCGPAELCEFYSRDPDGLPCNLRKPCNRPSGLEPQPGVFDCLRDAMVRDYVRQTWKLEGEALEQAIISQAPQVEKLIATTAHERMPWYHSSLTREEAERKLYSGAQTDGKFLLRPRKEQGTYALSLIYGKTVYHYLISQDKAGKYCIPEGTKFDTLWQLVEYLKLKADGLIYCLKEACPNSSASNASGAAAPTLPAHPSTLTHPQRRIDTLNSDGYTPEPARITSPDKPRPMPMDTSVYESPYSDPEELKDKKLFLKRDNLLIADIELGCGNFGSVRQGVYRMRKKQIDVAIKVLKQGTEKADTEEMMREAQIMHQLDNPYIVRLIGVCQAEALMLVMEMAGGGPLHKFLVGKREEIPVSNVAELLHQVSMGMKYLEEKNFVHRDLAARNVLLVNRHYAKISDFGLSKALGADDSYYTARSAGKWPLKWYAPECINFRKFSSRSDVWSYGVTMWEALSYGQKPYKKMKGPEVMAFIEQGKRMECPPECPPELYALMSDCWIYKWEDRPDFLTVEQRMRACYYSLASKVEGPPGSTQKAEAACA

C[C@]1(Nc2cnc(C(F)(F)F)cn2)CCC[C@@H]1NC(=O)c1ncccc1-n1nccn1 [CVN45502] showed an inhibition at 10 µM [1] of -1%, an inhibition at 10 µM [2] of -14% and an inhibition at 10 µM (Phospholipase PLA2-I) of 10%. The inhibition at 10 µM (Anaphylatoxin C5a) was 6%, the inhibition at 10 µM (Insulin) was 2% and the inhibition at 10 µM [3] was 5%. It also gave an inhibition at 10 µM (Cholecystokinin CCK1) of -18%, an inhibition at 10 µM (Histamine H3) of -4% and an inhibition at 10 µM (Bradykinin B1) of 4%. It also gave an inhibition at 10 µM [4] of 4%, an inhibition at 10 µM [5] of 35% and an inhibition at 10 µM (Carbonic Anhydrase II) of -4%. It also gave an inhibition at 10 µM [6] of 6%, an inhibition at 10 µM (HMG-CoA Reductase) of -4% and an inhibition at 10 µM (5-Lipoxygenase) of 14%. It also gave an inhibition at 10 µM [7] of 5%, an inhibition at 10 µM [8] of 12% and an inhibition at 10 µM [9] of -22%. The inhibition at 10 µM [10] was 0%, the inhibition at 10 µM (Monoamine Oxidase MAO-A) was 11% and the inhibition at 10 µM [11] was 6%. It also gave an inhibition at 10 µM (Cyclooxygenase COX-2) of -13%, an inhibition at 10 µM (Xanthine Oxidase) of 16% and an inhibition at 10 µM [12] of 2%. It also gave an inhibition at 10 µM (Calcium Channel N-type) of -1%.
